Results reported in patent US7371207B2 (Wyeth, priority 2002, dated 2008).
Entries after “also recorded” stand apart in the source; their conditions may differ.

Assays:
[1] = test system: gene expression in the pituitary; experiment: GeneChip microarray survey of E2 regulated gene expression, pituitary; type: in vivo, mouse
Excerpt: (§1) One week later, the animals were ovariectomized.

[2] = test system: gene expression in the uterus; experiment: GeneChip microarray survey of E2 regulated gene expression, uterus; conditions: 20 μg/kg/day E2 s.c. six weeks; WT and ERβKO ovariectomized mice; number of genes
Protocol: (§2) FIG. 1 depicts a pattern analysis generated by a GeneChip microarray analysis. […] Two hours following the final dose, the mice were euthanized and 13 tissues removed for RNA preparation. Two independent studies were performed, with total RNA pooled from two groups of three animals for each condition. Gene expression was quantified by GeneChip microarrays using murine U74 sub A arrays. Data were analyzed for patterns indicating either ERα or ERβ dependent regulation as shown. […] The number of genes in each tissue that matched the theoretical induction (↑) or repression (↓) patterns for ERα or ERβ are indicated.
as §1
GeneChip—Total RNA was prepared separately from each individual organ by using Trizol (Invitrogen) followed by subsequent repurification on Rneasy columns (Qiagen). In general, two pools of RNA were created using equal amounts of RNA from three mice. For small organs such as pituitary, an equal amount of RNA from six animals was combined.
(§3) Target Preparation and Array Hybridization—Total RNA was used to generate biotin labeled cRNA target as described (8) which was hybridized to the murine MG_U74Av2 probe arrays (Affymetrix, Santa Clara, Calif.) for 16 h at 45° C. Eleven biotin-labeled cRNAs at defined concentration were spiked into each hybridization and used to convert average difference values to frequencies expressed as parts per million.
The resulting data set was queried for genes whose regulation was dependent on ERα or ERβ.

[3] = test system: gene expression in the kidney; experiment: In situ hybridization of kidney, ovariectomized mice; type: in vivo, mouse; conditions: 20 μg/kg/day E2 six weeks, FIG. 3
Excerpt: No signal was detected with the corresponding sense probes.
Generally, in situ hybridization comprises the following major steps: (1) fixation of tissue or biological structure to be analyzed; (2) prehybridization treatment of the biological structure to increase accessibility of target nucleic acid, and to reduce nonspecific binding; (3) hybridization of the mixture of nucleic acids to the nucleic acid in the biological structure or tissue; (4) post-hybridization washes to remove nucleic acid fragments not bound in the hybridization, and (5) detection of the hybridized nucleic acid fragments. The probes used in such applications are typically labeled, for example, with radioisotopes or fluorescent reporters. Preferred probes are sufficiently long, for example, from about 50, 100, or 200 nucleotides to about 1000 or more nucleotides, to enable specific hybridization with the target nucleic acid(s) under stringent conditions.
as §1

[4] = test system: gene expression in the uterus; experiment: Real-time PCR of uterine gene expression in ovariectomized WT mice; type: in vivo, mouse; conditions: various doses s.c. six weeks, FIG. 5
Excerpt: as §1

[5] = test system: gene expression in the kidney; experiment: Real-time PCR of kidney gene expression in ovariectomized WT mice
Excerpt: FIGS. 5A-5B show a series of graphs showing expression levels for various genes. […] (B) Uterine wet weights (mg) and gene expression values (mean±SEM).
FIGS. 6A-6D show a series of bar graphs depicting relative expression levels for various genes.
as §1

[6] = test system: gene expression in bone marrow; experiment: GeneChip microarray survey of E2 regulated gene expression, bone marrow; type: in vivo, mouse; conditions: 20 μg/kg/day E2 s.c. six weeks; WT and ERβKO ovariectomized mice; number of genes
Protocol: as §2, §1
GeneChip—Total RNA was prepared separately from each individual organ by using Trizol (Invitrogen) followed by subsequent repurification on Rneasy columns (Qiagen). In general, two pools of RNA were created using equal amounts of RNA from three mice. […]
as §3, with “million. […]” for “million.”

[7] = test system: gene expression in the kidney of mice expressing ΔAF1-ERα; experiment: Real-time PCR of kidney gene expression in ERαERβKO or ERαKO mice expressing ΔAF1-ERα
Protocol: Kidney gene expression values were determined by real-time PCR for each individual animal and normalized for GAPDH expression. The mean expression level in vehicle-treated WT mice was defined as 1 for each gene. *p<0.01 for comparison to vehicle treated animals.
One week later, the animals were ovariectomized. Commencing the day after ovariectomy, each animal received a daily subcutaneous treatment with vehicle (50% DMSO, 50% phosphate buffered saline) or vehicle containing treatments for six weeks. Each group consisted of six or seven animals. Approximately 2 hours following the final treatment, the animals were euthanized with selected tissues frozen in liquid nitrogen for RNA analysis or on dry ice for histology.

[8] = 20 μg/kg/day E2 s.c. six weeks, WT and ERβKO ovariectomized mice, number of genes
[9] = 10 μg/kg/day E2 or 5 mg/kg/day tamoxifen, 6 weeks, FIG. 8

C[C@]12CC[C@@H]3c4ccc(O)cc4CC[C@H]3[C@@H]1CC[C@@H]2O [E2, 17β-estradiol]
ERα pattern regulations in pituitary, number of inductions [1, 8]: 56
ERα pattern regulations in pituitary, number of repressions [1, 8]: 30
Kallikrein-9 expression in pituitary ([1]; mouse, in vivo): Induced
ERα pattern regulations in uterus, number of inductions [2]: 514
ERα pattern regulations in uterus, number of repressions [2]: 19
localization of induction of CYP7B1, TF, STAT5A and GADD45G in mouse kidney [3]: induction of gene expression occurred in the juxtamedullary region of the kidney
ED50 for BCAT1 induction in the uterus [4]: 0.2 µg/kg/day
ED50 for c-fos induction in the uterus [4]: 2.7 µg/kg/day
BCAT1 expression in kidney, WT mice [5, 9]: induced
CYP7B1 expression in kidney, WT mice [5, 9]: induced
TF expression in kidney, WT mice [5, 9]: induced
ED50 for stimulation of CYP7B1, TF, STAT5A, and BCAT1 in the kidney ([5]; ovariectomized WT mice, various doses s.c. six weeks, FIG. 5): about 3 μg/kg/day
ERα pattern regulations in bone marrow, number of inductions [6]: 3
ERα pattern regulations in bone marrow, number of repressions [6]: 3
CYP7B1 expression in kidney, mice expressing ΔAF1-ERα (ERαERβKO or ERαKO) ([7]; 10 μg/kg/day E2, 6 weeks, FIG. 8): increased CYP7B1 expression
BCAT1 expression in kidney, ERαERβKO mice [7, 9]: stimulated BCAT1 expression
TF expression in kidney, ERαERβKO mice (express only ΔAF1-ERα) [7, 9]: Neither compound could induce TF expression
mechanism of induction of BCAT1 in kidney (ERα AF1 or AF2) ([7]; WT versus ΔAF1-ERα mice, E2 versus tamoxifen): either AF1 or AF2 mechanisms; also recorded: both AF1 and AF2 mechanisms
